Laboratory results taken from ChEMBL document CHEMBL1201862, “PubChem BioAssay data set” (2004).
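Growth conditions: 96-well plates. Treatment: test compound, 48 hours, 5 concentrations. Analysis: linear interpolation between bracketing concentrations; unreached endpoints set to highest concentration. At the GI50, growth is halved.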 The source made the active and inactive calls. Cut-off read from the data, not from the text of the source: active = GI50 up to about 1.1 µM and inactive = higher.

Legend:
Assay in all cases: growth of human tumour cells (NCI), 48 h
A549 = tested on: A549
ACHN = tested on: ACHN
BT-549 = tested on: BT-549
CAKI-1 = tested on: CAKI-1
CCRF-CEM = tested on: CCRF-CEM
COLO 205 = tested on: COLO 205
DU-145 = tested on: DU-145
EKVX = tested on: EKVX
HCC 2998 = tested on: HCC 2998
HCT-116 = tested on: HCT-116
HOP-62 = tested on: HOP-62
HOP-92 = tested on: HOP-92
HT-29 = tested on: HT-29
Hs-578T = tested on: Hs-578T
IGROV-1 = tested on: IGROV-1
K562 = tested on: K562
KM12 = tested on: KM12
LOX IMVI = tested on: LOX IMVI
M14 = tested on: M14
MCF7 = tested on: MCF7
MDA-MB-231 = tested on: MDA-MB-231
MDA-MB-435 = tested on: MDA-MB-435
MDA-N = tested on: MDA-N
MOLT-4 = tested on: MOLT-4
NCI-H226 = tested on: NCI-H226
NCI-H23 = tested on: NCI-H23
NCI-H460 = tested on: NCI-H460
NCI/ADR-RES = tested on: NCI/ADR-RES
OVCAR-3 = tested on: OVCAR-3
OVCAR-4 = tested on: OVCAR-4
OVCAR-5 = tested on: OVCAR-5
OVCAR-8 = tested on: OVCAR-8
PC-3 = tested on: PC-3
RPMI-8226 = tested on: RPMI-8226
RXF 393 = tested on: RXF 393
SF-268 = tested on: SF-268
SF-295 = tested on: SF-295
SK-MEL-28 = tested on: SK-MEL-28
SK-MEL-2 = tested on: SK-MEL-2
SK-MEL-5 = tested on: SK-MEL-5
SK-OV-3 = tested on: SK-OV-3
SN12C = tested on: SN12C
SNB-19 = tested on: SNB-19
SNB-75 = tested on: SNB-75
SR = tested on: SR
SW-620 = tested on: SW-620
T47D = tested on: T47D
TK-10 = tested on: TK-10
U-251 = tested on: U-251
UACC-257 = tested on: UACC-257
UACC-62 = tested on: UACC-62
UO-31 = tested on: UO-31
786-0 = tested on: 786-0
A498 = tested on: A498
HCT-15 = tested on: HCT-15
HL-60 = tested on: HL-60
Malme-3M = tested on: Malme-3M
SF-539 = tested on: SF-539

CN1C(=O)CC(=O)N1/C(=C/c1ccccc1)c1ccccc1
GI50 (A549): 85.3 µM (inactive) | GI50 (ACHN): 54.1 µM (inactive) | GI50 (BT-549): > 100 µM (inactive) | GI50 (CAKI-1): 23.7 µM (inactive) | GI50 (CCRF-CEM): 21.3 µM (inactive) | GI50 (COLO 205): 41 µM (inactive) | GI50 (DU-145): > 100 µM (inactive) | GI50 (EKVX): > 100 µM (inactive) | GI50 (HCC 2998): > 100 µM (inactive) | GI50 (HCT-116): > 100 µM (inactive) | GI50 (HOP-62): > 100 µM (inactive) | GI50 (HOP-92): 75.5 µM (inactive) | GI50 (HT-29): > 100 µM (inactive) | GI50 (Hs-578T): 28.2 µM (inactive) | GI50 (IGROV-1): 18.2 µM (inactive) | GI50 (K562): 55.6 µM (inactive) | GI50 (KM12): > 100 µM (inactive) | GI50 (LOX IMVI): 17 µM (inactive) | GI50 (M14): 65.8 µM (inactive) | GI50 (MCF7): 47.2 µM (inactive) | GI50 (MDA-MB-231): 12.6 µM (inactive) | GI50 (MDA-MB-435): 66.8 µM (inactive) | GI50 (MDA-N): > 100 µM (inactive) | GI50 (MOLT-4): 30.3 µM (inactive) | GI50 (NCI-H226): > 100 µM (inactive) | GI50 (NCI-H23): > 100 µM (inactive) | GI50 (NCI-H460): 48 µM (inactive) | GI50 (NCI/ADR-RES): > 100 µM (inactive) | GI50 (OVCAR-3): 39.3 µM (inactive) | GI50 (OVCAR-4): 49.8 µM (inactive) | GI50 (OVCAR-5): > 100 µM (inactive) | GI50 (OVCAR-8): > 100 µM (inactive) | GI50 (PC-3): 32 µM (inactive) | GI50 (RPMI-8226): 37.1 µM (inactive) | GI50 (RXF 393): 14 µM (inactive) | GI50 (SF-268): > 100 µM (inactive) | GI50 (SF-295): 67 µM (inactive) | GI50 (SK-MEL-28): > 100 µM (inactive) | GI50 (SK-MEL-2): 38.5 µM (inactive) | GI50 (SK-MEL-5): 72.8 µM (inactive) | GI50 (SK-OV-3): > 100 µM (inactive) | GI50 (SN12C): > 100 µM (inactive) | GI50 (SNB-19): > 100 µM (inactive) | GI50 (SNB-75): > 100 µM (inactive) | GI50 (SR): 76.4 µM (inactive) | GI50 (SW-620): > 100 µM (inactive) | GI50 (T47D): > 100 µM (inactive) | GI50 (TK-10): 33 µM (inactive) | GI50 (U-251): > 100 µM (inactive) | GI50 (UACC-257): > 100 µM (inactive) | GI50 (UACC-62): 76.9 µM (inactive) | GI50 (UO-31): 18.1 µM (inactive)

C[C@]12CC[C@@H]3c4cc(Br)c(O)c(Br)c4CC[C@H]3[C@@H]1CCC2=O
GI50 (786-0): 19.7 µM (inactive) | GI50 (A498): 40.9 µM (inactive) | GI50 (A549): 17.3 µM (inactive) | GI50 (ACHN): 13.5 µM (inactive) | GI50 (BT-549): 23.8 µM (inactive) | GI50 (CAKI-1): 18.9 µM (inactive) | GI50 (CCRF-CEM): 24.7 µM (inactive) | GI50 (COLO 205): > 100 µM (inactive) | GI50 (DU-145): 39.6 µM (inactive) | GI50 (EKVX): 25.5 µM (inactive) | GI50 (HCC 2998): 13.9 µM (inactive) | GI50 (HCT-116): 27.5 µM (inactive) | GI50 (HCT-15): 12.4 µM | GI50 (HL-60): 26.2 µM (inactive) | GI50 (HOP-92): 34.9 µM (inactive) | GI50 (HT-29): 46.1 µM (inactive) | GI50 (Hs-578T): 21.9 µM (inactive) | GI50 (IGROV-1): 38.1 µM (inactive) | GI50 (K562): 18 µM (inactive) | GI50 (KM12): 63.7 µM (inactive) | GI50 (LOX IMVI): 20.4 µM (inactive) | GI50 (M14): 39.2 µM (inactive) | GI50 (MCF7): 21.4 µM (inactive) | GI50 (MDA-MB-231): 32.2 µM (inactive) | GI50 (MDA-MB-435): 26.2 µM (inactive) | GI50 (MDA-N): 33.1 µM (inactive) | GI50 (MOLT-4): 20.6 µM (inactive) | GI50 (Malme-3M): 85.9 µM (inactive) | GI50 (NCI-H226): 7.87 µM (inactive) | GI50 (NCI-H23): 13.8 µM (inactive) | GI50 (NCI-H460): 21.4 µM (inactive) | GI50 (NCI/ADR-RES): 12.5 µM (inactive) | GI50 (OVCAR-3): 16.4 µM (inactive) | GI50 (OVCAR-4): 13.3 µM (inactive) | GI50 (OVCAR-5): 21.8 µM (inactive) | GI50 (OVCAR-8): 19 µM (inactive) | GI50 (PC-3): 30.8 µM (inactive) | GI50 (RXF 393): 16.7 µM (inactive) | GI50 (SF-268): 23.3 µM (inactive) | GI50 (SF-295): 16.4 µM (inactive) | GI50 (SF-539): 19.9 µM (inactive) | GI50 (SK-MEL-28): 31 µM (inactive) | GI50 (SK-MEL-2): 15 µM (inactive) | GI50 (SK-OV-3): 31.4 µM (inactive) | GI50 (SN12C): 27.7 µM (inactive) | GI50 (SNB-75): 16.1 µM (inactive) | GI50 (SW-620): 32.9 µM (inactive) | GI50 (T47D): 33.9 µM (inactive) | GI50 (TK-10): 17.6 µM (inactive) | GI50 (U-251): 16.6 µM (inactive) | GI50 (UACC-257): 20.9 µM (inactive) | GI50 (UACC-62): 16.3 µM (inactive) | GI50 (UO-31): 11.9 µM (inactive)
